Data as given in patent publication US8242086B2, “Methods and compositions for treating disorders caused by a deficiency in a gene product of a CLN gene” (Duke University, priority 2008, dated 2012).
“Also recorded” adds a separate entry of the source.

Columns and labels:
[1] = biological target: T1, wild-type CLN3p (Homo sapiens, UniProt Q13286); test: Protein-lipid overlay assay, wild-type CLN3p; assay type: binding
T1 construct: expressed in transfected cells; host or cells: fibroblasts overexpressing CLN3p (AC1 cells)
T1 sequence (Q13286 1-438): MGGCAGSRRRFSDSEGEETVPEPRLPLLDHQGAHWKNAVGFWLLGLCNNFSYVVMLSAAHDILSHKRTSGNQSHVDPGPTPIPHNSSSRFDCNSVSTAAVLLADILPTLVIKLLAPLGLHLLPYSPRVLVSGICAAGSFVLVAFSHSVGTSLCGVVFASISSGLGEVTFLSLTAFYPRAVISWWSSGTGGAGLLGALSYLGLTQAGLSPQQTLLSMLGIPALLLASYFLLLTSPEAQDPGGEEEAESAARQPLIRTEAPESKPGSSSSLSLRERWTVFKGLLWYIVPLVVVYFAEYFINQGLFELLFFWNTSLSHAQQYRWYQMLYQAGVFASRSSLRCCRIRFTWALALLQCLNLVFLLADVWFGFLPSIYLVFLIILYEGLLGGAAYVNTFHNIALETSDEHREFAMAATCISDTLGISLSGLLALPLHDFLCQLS
Procedure: (§1) Protein-lipid overlay assay. Membrane arrays (SPHINGOSTRIPS (Echelon Research Laboratories, Salt Lake City, Utah), or lipids were spotted on nitrocellulose membranes and dried for at least one hour. Membranes were blocked with 3% (wt/vol) Fatty Acid Free or FFA-BSA (Sigma-Aldrich, St. Louis, Mo.) in Tris-Buffered Saline Tween-20 (TBST) [150 mM NaCl/10 mM Tris.HCl (pH 8.0), and 0.1% (vol/vol) Tween-20] for 1 h at RT. Blocked membranes were incubated for 8 h at 4° C. with 2 mg/ml of total cell lysate.
(§2) Fibroblasts overexpressing CLN3p (AC1 cells) and JNCL fibroblasts were used for the GalCer-CLN3 binding assay. The membranes were then washed five times for 5 min each with TBST. After washing, membranes were incubated with anti-CLN3, CLN1, CLN2, CLN6 or CLN8-antibodies overnight at 1:1000 dilution, followed by additional washing and incubation with horseradish peroxidase-conjugated anti-rabbit IgG goat antibody for 1 h at RT. After a final washing, enhanced chemiluminescence was used to detect binding of NCL proteins to sphingolipids. Intensity values were computed with an ImageJ software program.
Binding of CLN3 to GalCer and sulfatide. Membranes impregnated with sphingolipids were overlaid with protein cell lysates from CLN3-overexpressing and JNCL cells. Anti-CLN3 antibody was used to evaluate binding. […] The signal for GalCer-wild-type CLN3p binding was weaker because the more polar sulfatide competes with the less polar GalCer for binding to wild-type CLN3p.

[2] = test system: mutant CLN3p; test: Protein-lipid overlay assay, mutant CLN3p (JNCL cell lysate); assay type: binding, human; conditions: lysate of JNCL cells, anti-CLN3 antibody
Procedure: as §1, §2
Binding of CLN3 to GalCer and sulfatide. Membranes impregnated with sphingolipids were overlaid with protein cell lysates from CLN3-overexpressing and JNCL cells. Anti-CLN3 antibody was used to evaluate binding. […]

[3] = test system: CLN8 protein; test: Protein-lipid overlay assay, CLN8 protein; assay type: binding; conditions: lysates from normal cells, custom made sphingostrips
Procedure: as §1, §2
CLN1, CLN2, CLN6, CLN8 and CLN9 proteins also bind to lipids. […]

[4] = test system: CLN3-deficient (JNCL) cells; test: Growth of CLN3-deficient (JNCL) cells treated with GalCer, Trypan blue dye exclusion; assay type: cell-based, human
Procedure: Cell Culture. Lymphoblasts are grown at 37° C. and in 5% CO2 in RPMI 1640 medium (Sigma-Aldrich, St Louis, Mo.)/10% fetal bovine serum and 1% antibiotic/antimycotic. Immortalized lymphoblast cell lines originally obtained from JNCL and other NCL patients and normal donors, were used for all experiments. Fibroblasts from normal and mnd (CLN8-deficient) mice were also used. All JNCL lymphoblasts used are homozygous for the 1.02 kb deletion in the genomic DNA.
Treatment of CLN3-deficient (JNCL) cells with GalCer increases growth rates. 0.1 million CLN3−/− cells were plated per well in 6 well plates. harvested and counted at 24, 48, 72 and 96 hours. Numbers of viable cells were determined with Trypan blue dye exclusion.

[5] = test system: CLN3 knockdown NT2 cells; test: Cell proliferation rate in CLN3 knockdown NT2 cells, Trypan blue dye exclusion; assay type: cell-based, human; conditions: GalCer 50 ng/ml, 3 days post-transfection
Procedure: Cell Culture and Cell Treatment. NT2 neuronal precursor cells (ATCC cat no. CRL 1973) were grown in DMEM supplemented with 1% sodium pyruvate, L-glutamine and antibiotics and incubated in 37 C and 5% CO2 for 3 days.
siRNA knockdown of CLN3 in NT2 cells. HS1 siRNA ([…]) for CLN3 knockdown was designed using BLOCK-iT RNA™ Designer (Invitrogen). […] siRNA and scrambled universal negative control siRNA oligonucleotides were transfected into wild type NT2 cells using Lipofectamine RNAiMax™ according to manufacturer's protocol. In brief, […] HS1 RNAi duplex or scrambled siRNA universal negative control were diluted in 50 μl DMEM medium without serum. Lipofectamine™ RNAiMAX was mixed gently before use, then 1 μl was diluted in 50 μl DMEM medium. The diluted RNAi duplexes were combined with the diluted Lipofectamine RNAiMAX and incubated for 10 minutes at room temperature. The RNAi duplex-Lipofectamine™ RNAiMAX complexes were added to cells for a final RNA concentration of 10 nM. […]
Determination of cell proliferation rate in CLN3 knockdown NT2 cells. 4×10^5 cells transfected with CLN3 siRNA or scrambled siRNA, and treated or not treated with 50 ng/ml GalCer, were seeded and counted with Trypan blue dye exclusion. […]
NT2 cell proliferation and apoptosis rates. An equal number of NT2 cells was initially seeded and cell number determined at different time points with Trypan blue dye exclusion. […]

[6] = test system: galactosylceramide transferase (GCT); conditions: exogenous supplementation of GalCer; Rusyn E et al., 2008; cited from earlier work
[7] = investigated as a cancer therapy; cited from earlier work

Substance: galactosylceramide [GalCer]
- binding of wild-type CLN3p to membrane spots impregnated with the lipid ([1]; lysate of CLN3-overexpressing cells, anti-CLN3 antibody): bind strongly
- binding of CLN3p to GalCer when sulfatide was omitted from the membrane ([1]; sulfatide omitted, dose dependent): stronger binding
- binding of mutant CLN3 to membrane spots impregnated with the lipid [2]: failed to do so
- binding of CLN8 protein to lipid [3]: bind
- growth of JNCL cells ([4]; GalCer 50 ng/ml, counted at 24, 48, 72 and 96 hours): restored growth
- growth of JNCL cells ([4]; GalCer 100 ng/ml (doubled concentration)): no effect
- growth of CLN3-deficient NT2 cells [5]: normalized growth; also recorded: corrects growth
- growth defect and increased apoptosis of GalCer synthase knockdown lymphoblasts [6]: remedied
- safety in humans [7]: documented to be safe in humans
